# Measured values from ChEMBL document CHEMBL3507680, “University of Dundee, Gates Library screen for HepG2 cell viability”.
# Assay: Human HepG2 cell viability assay in 384 well format
# Type: toxicity, cell-based
# Set-up: dose 125 nL, time 70.5 hour; concentration not given beside the values
# Settings: HepG2 cells, read-out: Inhibition
row,SMILES,cytotoxicity at 70.5 h
1,N#Cc1cccc(S(=O)(=O)NC2CCN(CC(F)(F)F)C2)c1 (stereo unspecified),-15.4%
2,CC1CCN(C(=O)CSCc2noc(C(C)C)n2)CC1,-4.52%
3,Cc1nc[nH]c1CN1CCN(C(=O)CCC(F)(F)F)[C@H]2CS(=O)(=O)C[C@H]21,-9.24%
4,Cc1ccc(=O)n(CC2(O)CCN(Cc3cnc(N(C)C)nc3)CC2)n1,17.6%
5,CNS(=O)(=O)CC1CCCN1C(=O)c1ccc2cc[nH]c2c1 (stereo unspecified),-7.71%
6,CC(C)N(CC1CCCN(CC(N)=O)C1)C(=O)OC(C)(C)C (stereo unspecified),-12.8%
7,CCOCCC(=O)N(C)CC1Cc2ccccc2CN1C (stereo unspecified),-0.994%
8,CC(NC(=O)Nc1cccnc1N1CCCC1)c1ccncc1 (stereo unspecified),0.728%
9,Cc1nccn1C1CCCN(C(=O)c2ccc(N(C)C)nc2)C1 (stereo unspecified),-7.86%
10,O=C1OCCN1CCCN1CCCC1c1ccc(O)cc1 (stereo unspecified),-3.89%
11,CCc1cc(NCCNc2cccnc2)n2nccc2n1,-7.64%
12,CCC(CC)(CNC(=O)OC(C)(C)C)NC(=O)C1CCOCC1,-5.37%
13,CC(=O)N1N=C(Cc2ccccc2)OC1C(=O)NCC(=O)OC(C)(C)C (stereo unspecified),-4.37%
14,CCc1ccc(CNC(=O)CCNc2ncccn2)s1,-13.5%
15,c1ccc(CN2Cc3[nH]nc(COCC4CC4)c3C2)nc1,-4.63%
16,N#CCCN(Cc1cccnc1)C(=O)c1ccn(-c2ccccc2)n1,1.01%
17,CC(=O)Nc1ccsc1C(=O)Nc1cnc2n1CCCC2,-4.21%
18,CC(Cc1cccs1)NC(=O)CCn1cccn1 (stereo unspecified),-0.682%
19,CCS(=O)(=O)NCC1OCCc2cn(CCOC)nc21 (stereo unspecified),-3.26%
20,CCn1ccnc1C1CCN(Cc2cccc(Cl)c2)CC1,37.8%
21,Cc1nc(=O)c2ccccc2n1C1=CCN(CC(=O)N2CCCC2)CC1,-1.43%
22,Cc1nc(C)n(CC2CCCN(c3ccnc(-c4ccccc4)n3)C2)n1 (stereo unspecified),-10.2%
23,Cc1noc(C)c1CN1CCC(c2nnc(Cn3cccn3)n2C)CC1,-6.21%

row,SMILES,cytotoxicity at 70.5 h
1,CN(C)C(=O)N1CCC2(CC1)COCCN(c1ncccn1)C2,-3.19%
2,CN(C)C(=O)N1Cc2nnn(C)c2C(COCc2cccnc2)C1 (stereo unspecified),-2.6%
3,CN(C)c1nccc(C2CCN(C(=O)CO)CC2)n1,13.9%
4,Cc1ccc(C)c(CC(=O)NC2CCC(N3C(=O)CCC3=O)CC2)c1 (stereo unspecified),-1.42%
5,CCCS(=O)(=O)NCc1cccnc1Oc1ccc(C)c(F)c1F,-1.35%
6,CCc1noc(C(C)N(C)CC(=O)Nc2ccccc2Cl)n1 (stereo unspecified),-89.8%
7,Cc1nnc(N2CCCC(C(=O)c3cccc(Cl)c3)C2)o1 (stereo unspecified),-3.19%
8,COCC[C@]1(O)CCN(Cc2nc(C)cs2)C[C@H]1C,15.3%
9,CC(C)Cc1cc(NC(=O)c2ccc(=O)[nH]n2)n(C)n1,-2.14%
10,Cc1cc(C)c(C#N)c(N2CCC3(CCCN(CCO)C3=O)C2)n1 (stereo unspecified),12.1%
11,CC1CN(C)c2ccccc2N(C(=O)c2ccc(=O)n(C)c2)C1 (stereo unspecified),6.89%
12,CS(=O)(=O)NCc1nnc2n1CCN(Cc1nccs1)C2,5.64%
13,COCc1noc(C2(c3cccc(Cl)c3)CCOCC2)n1,26.5%
14,CCc1nccn1C1CCCN(C(=O)c2ccn(C)c(=O)c2)C1 (stereo unspecified),-0.0555%
15,Cc1ccc(CN2C[C@H](N(C)Cc3cncnc3)[C@H]3OCCC[C@H]32)o1,-10.1%
16,Cn1cnc(S(=O)(=O)N2CCN(Cc3ccco3)CC2)c1Cl,2.09%
17,Cc1cc(-c2ccc(C(C)N3CCCCC3)cc2)cnc1N (stereo unspecified),-1.07%
18,CCc1nc(C2CCCN2CCCSC)no1 (stereo unspecified),-4.43%
19,NC(=O)CS(=O)(=O)Cc1ccc(OCc2ccc(F)cc2)cc1,-2.96%
20,CO[C@H]1C[C@@H](O)C12CCN(Cc1nc(C(F)(F)F)no1)CC2,-10.9%
21,O=C(c1nnn(-c2ccc(C(F)(F)F)cc2)n1)N1CCC(O)CC1,-2.52%
22,CCSCc1ccc(C(=O)N2CCCN(CC(N)=O)CC2)cc1,-5.22%
23,CC(C)Cn1ccnc1CNC(=O)NC(C)(C)c1nccs1,19.7%
